The values that follow come from patent publication US20250383339A1, “DESIGN AND APPLICATION OF NOVEL LIGAND-INDUCED SPLIT-PROTEIN SYSTEMS” (ARIZONA BOARD OF REGENTS ON BEHALF OF THE UNIVERSITY OF …, priority 2022, published 2025).

Entries after “also recorded” stand apart in the source; their conditions may differ.

Assay [1] deals with Bcl-xL WT and Bcl-xL R139A. Nature of the assay: split-luciferase assay, Bcl-xL 209 R139A side-by-side with wild-type parent. Format: cell-based, human. To be noted: α3-α4 split site, 50 nM ligand, 5 ng of each FLuc construct (FIG. 3). How it is done:
Low passage (≤25) cells were seeded onto T-75 (Fisher) flasks at 1E6 cells per mL and grown for 24 hours in complete media. Transient transfections were performed using PolyJet (SignaGen). 96-well culture plates were coated with 50 μL/well of 50 μg/mL solution of poly-D-lysine (MilliPore) and incubated at 4C overnight. Cells were transfected for ˜16 h, then were trypsinized and quantified. Cells were plated onto coated 96-well plates at 1E4 cells/well in DMEM supplemented with 0.5% v/v FBS. Treatment was dissolved in DMSO and added to a final DMSO concentration of 0.05% by volume. Cells were grown in treatment media for 24 h before being lysed with an in-house detergent-based buffer. Cell lysis was clarified via centrifugation, and 50 μL of clarified lysate was plated per well on a white U-bottom luminescence plate. 80 μL of L-GLO was added to each well, and the plate was incubated at room temperature for 25-40 minutes before luminescence was read on a Centro XS3 LB960 (Berthold Technologies) microplate luminometer. Separately, clarified lysate was quantified using a Micro-BCA kit (Pierce), and luminescence was normalized to RLU per microgram of total protein using Microsoft Excel. All data presented were plotted using Kaleidagraph (Synergy) 3.5.

Assay [2] deals with split-Src controlled by split Bcl-xL. Nature of the assay: anti-phosphotyrosine western blot of split-Src controlled by split Bcl-xL in HEK293T cells. Format: cell-based, human. To be noted: for global tyrosine phosphorylation: N-Bcl-xL 1-112 / C-Bcl-XL WT 113-209 split-Src, 10 µM ligand vs DMSO. The procedure: The most ligand-responsive fragments, N-Bcl-xL 1-112 and C-Bcl-XL WT 113-209, were cloned into existing full-length split-Src constructs. N-Bcl-xL was attached via a 25-residue linker to the N-terminus of N-Src. C-Bcl-XL WT was attached via a 25-residue linker to C-Src Y530F (FIG. 4A). Each split-kinase system was tested in HEK293T cells via transient transfection and treated with either DMSO or 10 µM of Bcl-xL ligands A-1155463, ABT-263, or ABT-737. […] More importantly, this novel CID system can likely be used in combination with the three existing CID systems to generate additional layers of control in cells for controlling pathways with externally added small molecules. For example, a split kinase and a corresponding split phosphatase may be used in conjunction with a split target protein (e.g., as described herein) to examine any given phosphorylation pathway in a cell. In some embodiments, the split target protein may be either upstream or downstream of a phosphorylation cascade (e.g., the split kinase). The aforementioned system would allow precise signaling studies to be undertaken by titration of two or more ligands (e.g., small molecules; e.g., one ligand for each split protein in the system).

Assay [3] has as its system split-Src controlled by the ABI/PYL CID system. Nature of the assay: anti-phosphotyrosine western blot of split-Src controlled by the ABI/PYL CID system. Format: cell-based. To be noted: for phosphorylation / kinase activity of ABI/PYL split-Src with CID alone: abscisic acid CID alone. How it is done: It was hypothesized that there might be off-target kinase inhibition by ABT-263, which is not present in the other ligands tested. To interrogate this potential off-target kinase inhibition, an orthogonal split-Src construct design was employed with ABI and PYL domains and the CID, abscisic acid. The split-Src was tested as fragments without CID, fragments with CID, and fragments with CID plus ABT-263.

In another assay the target is T1, Bcl-xL 209 R139A (Homo sapiens, UniProt Q07817, R139A).
T1 construct: expressed in transfected cells; host or cells: HEK293T
T1 sequence (Q07817 113-209 R139A, one chain of several): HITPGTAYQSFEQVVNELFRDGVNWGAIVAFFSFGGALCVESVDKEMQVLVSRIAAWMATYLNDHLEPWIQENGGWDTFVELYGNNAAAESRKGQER
Nature of the assay: split-luciferase complementation assay of split Bcl-xL 209 R139A in HEK293T cells. Format: cell-based. To be noted: split-luciferase signal. From the text: (§1) To design split Bcl-xL, a suitable readout was required to measure successful ligand-dependent reassembly. A split-luciferase complementation assay was used, which was originally identified by rapamycin-induced complementation of FKBP and FRB. The split protein constructs were designed such that split-firefly luciferase-dependent luminescence would only be generated upon dimerization of N-Bcl-xL and C-Bcl-xL fragments […] (FIG. 2A). The split-protein constructs were created for each of the Bcl-xL split sites (FIG. 2B) and tested by transient transfection into HEK293T cells with the addition of either a Bcl-xL ligand or DMSO.
Low passage (≤25) cells were seeded onto T-75 (Fisher) flasks at 1E6 cells per mL and grown for 24 hours in complete media. […] Cells were transfected for ˜16 h, then were trypsinized and quantified. […] Cell lysis was clarified via centrifugation, and 50 μL of clarified lysate was plated per well on a white U-bottom luminescence plate. 80 μL of L-GLO was added to each well, and the plate was incubated at room temperature for 25-40 minutes before luminescence was read on a Centro XS3 LB960 (Berthold Technologies) microplate luminometer. Separately, clarified lysate was quantified using a Micro-BCA kit (Pierce), and luminescence was normalized to RLU per microgram of total protein using Microsoft Excel. […]

The next assay deals with Bcl-xL (Homo sapiens, UniProt Q07817). The note with it: in the literature; cited from earlier work.
Sequence of Bcl-xL (Q07817 whole entry, the tested form may be a part): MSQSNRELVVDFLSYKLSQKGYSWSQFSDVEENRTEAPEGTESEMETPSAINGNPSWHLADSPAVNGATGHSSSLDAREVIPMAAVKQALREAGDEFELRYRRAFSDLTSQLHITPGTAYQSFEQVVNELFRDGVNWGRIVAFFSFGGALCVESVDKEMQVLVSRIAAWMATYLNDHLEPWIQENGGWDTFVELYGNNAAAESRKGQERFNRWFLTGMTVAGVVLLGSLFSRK
The target of assay [4] is T2, C-Bcl-XL WT 113-209 split-firefly-luciferase fusion (human, UniProt Q07817 113-209).
T2 construct: not shown: split firefly luciferase half (NFluc or CFluc) with any linker
T2 sequence (Q07817 113-209): as the sequence (Q07817 113-209 R139A, one chain of several) above, with A27R counted along it
Nature of the assay: split-luciferase complementation in HEK293T cells, reassembly induced by ABT-263.
Excerpt: Fold change is indicated as a measure of small-molecule dependence of the luminescence.
as §1

`CC1(C)CCC(c2ccc(Cl)cc2)=C(CN2CCN(c3ccc(C(=O)NS(=O)(=O)c4ccc(N[C@H](CCN5CCOCC5)CSc5ccccc5)c(S(=O)(=O)C(F)(F)F)c4)cc3)CC2)C1` [ABT-263]: in assay [1], the “split-luciferase signal, difference between Bcl-xL WT and R139A in ligand-induced reassembly” value is on record as “respond similarly; also recorded: no significant difference”. For the same molecule, in assay [2], the global tyrosine phosphorylation result is on record as “significant increases in global tyrosine phosphorylation”. Further, the “intensity of induced phosphorylation compared to A-1155463 and ABT-737” value in assay [2] (split-Src controlled by split Bcl-xL) is reported as “lower intensity of induced phosphorylation”. In addition, the “phosphorylation / kinase turn-on of ABI/PYL split-Src on addition of ABT-263 with abscisic acid” value in assay [3] (fragments with abscisic acid CID plus ABT-263) was “lesser amount of kinase turn-on; also recorded: phosphorylation is slightly decreased”.

Take `CN(C)CC[C@H](CSc1ccccc1)Nc1ccc(S(=O)(=O)NC(=O)c2ccc(N3CCN(Cc4ccccc4-c4ccc(Cl)cc4)CC3)cc2)cc1[N+](=O)[O-]` [ABT-737]: in assay [2], the global tyrosine phosphorylation entry is “significant increases in global tyrosine phosphorylation”.

For `CN(C)CC#Cc1ccc(OCCCc2sc(N3CCc4cccc(C(=O)Nc5nc6ccccc6s5)c4C3)nc2C(=O)O)c(F)c1` [A-1155463], on Bcl-xL 209 R139A, the “ligand-induced reassembly (induced dimerization) of Bcl-xL 209 R139A” value is “did not induce significant reassembly”. Moreover, the “split-luciferase signal, difference between Bcl-xL WT and R139A in ligand-induced reassembly” value in assay [1] is recorded as “preferential binding for wild-type C-Bcl-XL 113-209 over the R139A mutant”. In addition, in assay [2], the global tyrosine phosphorylation result is on record as “significant increases in global tyrosine phosphorylation”. In addition, the “binding affinity to Bcl-xL” value on Bcl-xL is reported as “sub-nanomolar”.

Take `CC1=CC(=O)CC(C)(C)[C@@]1(O)/C=C/C(C)=C\C(=O)O` [abscisic acid]: the “phosphorylation / kinase activity of ABI/PYL split-Src with CID alone” value in assay [3] is listed as “strong phosphorylation”; in assay [3] (listed as ABA), “turns the kinase activity on”.

B1: N-Bcl-xL 1-112 split-firefly-luciferase fusion (α3-α4 split site) (other)
chain: MEDAKNIKKGPAPFYPLEDGTAGEQLHKAMKRYALVPGTIAFTDAHIEVNITYAEYFEMSVRLAEAMKRYGLNTNHRIVVCSENSLQFFMPVLGALFIGVAVAPANDIYNERELLNSMNISQPTVVFVSKKGLQKILNVQKKLPIIQKIIIMDSKTDYQGFQSMYTFVTSHLPPGFNEYDFVPESFDRDKTIALIMNSSGSTGLPKGVALPHRTACVRFSHARDPIFGNQIIPDTAILSVVPFHHGFGMFTTLGYLICGFRVVLMYRFEEELFLRSLQDYKIQSALLVPTLFSFFAKSTLIDKYDLSNLHEIASGGAPLSKEVGEAVAKRFHLPGIRQGYGLTETTSAILITPEGDDKPGAVGKVVPFFEAKVVDLDTGKTLGVNQRGELCVRGPMIMSGYVNNPEATNALIDKDGCGRGGSGGGGSGGGGSVDGGSGGQLDIMSQSNRELVVDFLSYKLSQKGYSWSQFSDVEENRTEAPEGTESEMETPSAINGNPSWHLADSPAVNGATGHSSSLDAREVIPMAAVKQALREAGDEFELRYRRAFSDLTSQL
notes: Expressed by transient transfection in HEK293T cells; also called N-Bcl-xL (aa 1-112)
Regarding B1, in assay [4], the binding result is “binds”.
